Literature values, collected in paper PMC11320730, “5-Methoxy-2-aminoindane Reverses Diet-Induced Obesity and Improves Metabolic Parameters in Mice: A Potential New Class of Antiobesity Therapeutics” (ACS Pharmacology & Translational Science, 2024).

Assays:
[1] = tested on: adult female participants with anorexia nervosa; conditions: single 25 mg dose with psychological support, 10 adult female participants; cited from earlier work
[2] = tested on: rats fed a cafeteria diet; set-up: method as in PMID 35664477; conditions: cited from earlier work
[3] = tested on: lean mice, DIO mice, ob/ob mice and melanocortin-receptor 4 knockout mice; set-up: method as in PMID 35953488; conditions: ob/ob and melanocortin-receptor 4 knockout mice; cited from earlier work

SMILES: CN(C)CCc1c[nH]c2cccc(OP(=O)(O)O)c12 [psilocybin]
- safety and tolerability (adverse events) [1]: no clinically significant adverse events observed
- weight loss ([2]; at the given doses): no effect
- weight gain [2]: reduced
- body weight [3]: no impact
- food intake [3]: no impact
